Experiment [1] has as its target T1, AHR (Mus musculus, UniProt P30561).
T1 sequence (P30561 1-848 P471L/N533S/M589L): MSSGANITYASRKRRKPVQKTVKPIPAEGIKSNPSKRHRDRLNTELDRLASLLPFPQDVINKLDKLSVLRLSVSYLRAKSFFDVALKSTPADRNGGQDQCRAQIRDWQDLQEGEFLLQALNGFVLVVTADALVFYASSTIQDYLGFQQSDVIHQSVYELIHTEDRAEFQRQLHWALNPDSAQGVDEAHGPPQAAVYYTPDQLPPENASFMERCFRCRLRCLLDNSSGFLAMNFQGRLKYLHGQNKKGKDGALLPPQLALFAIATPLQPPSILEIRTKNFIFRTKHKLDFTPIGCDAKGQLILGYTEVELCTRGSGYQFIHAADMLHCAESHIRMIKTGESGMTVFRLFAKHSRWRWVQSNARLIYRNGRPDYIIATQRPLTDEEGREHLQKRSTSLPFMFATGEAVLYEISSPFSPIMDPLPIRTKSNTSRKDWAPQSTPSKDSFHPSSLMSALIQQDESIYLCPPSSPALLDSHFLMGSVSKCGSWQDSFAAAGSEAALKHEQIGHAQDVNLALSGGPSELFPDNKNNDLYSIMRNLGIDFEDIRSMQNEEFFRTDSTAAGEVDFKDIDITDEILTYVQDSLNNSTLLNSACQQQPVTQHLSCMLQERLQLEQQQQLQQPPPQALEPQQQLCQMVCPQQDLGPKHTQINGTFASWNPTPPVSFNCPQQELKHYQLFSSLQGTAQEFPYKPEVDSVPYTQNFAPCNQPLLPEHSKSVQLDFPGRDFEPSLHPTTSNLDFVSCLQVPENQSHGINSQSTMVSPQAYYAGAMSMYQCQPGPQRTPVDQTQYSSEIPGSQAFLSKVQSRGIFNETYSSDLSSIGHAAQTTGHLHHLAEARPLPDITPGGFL
Briefly: In vitro assay 3: antagonism in mouse cell line (AHR transactivation, firefly luciferase reporter, kynurenic acid prestimulated). The class given is cell-based. A digest of the protocol:
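Kynurenic acid-prestimulated mouse reporter cells; stable AHR-inducible firefly luc construct with DRE sites in promoter. No-agonist wells = positive inhibition ctrl. Luminescence normalized to pos/neg ctrls; n>1 reported as mean or median.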
(In a reporter assay the amount or activity of a reporter protein is the signal.)

Experiment [2] has as its target T2, AHR (Homo sapiens, UniProt P35869).
T2 construct: U87 MG glioblastoma cells (ATCC #HTB-14) endogenously expressing AHR; endogenous in cells; host or cells: U87 MG glioblastoma cells (ATCC #HTB-14)
T2 sequence (P35869 11-848): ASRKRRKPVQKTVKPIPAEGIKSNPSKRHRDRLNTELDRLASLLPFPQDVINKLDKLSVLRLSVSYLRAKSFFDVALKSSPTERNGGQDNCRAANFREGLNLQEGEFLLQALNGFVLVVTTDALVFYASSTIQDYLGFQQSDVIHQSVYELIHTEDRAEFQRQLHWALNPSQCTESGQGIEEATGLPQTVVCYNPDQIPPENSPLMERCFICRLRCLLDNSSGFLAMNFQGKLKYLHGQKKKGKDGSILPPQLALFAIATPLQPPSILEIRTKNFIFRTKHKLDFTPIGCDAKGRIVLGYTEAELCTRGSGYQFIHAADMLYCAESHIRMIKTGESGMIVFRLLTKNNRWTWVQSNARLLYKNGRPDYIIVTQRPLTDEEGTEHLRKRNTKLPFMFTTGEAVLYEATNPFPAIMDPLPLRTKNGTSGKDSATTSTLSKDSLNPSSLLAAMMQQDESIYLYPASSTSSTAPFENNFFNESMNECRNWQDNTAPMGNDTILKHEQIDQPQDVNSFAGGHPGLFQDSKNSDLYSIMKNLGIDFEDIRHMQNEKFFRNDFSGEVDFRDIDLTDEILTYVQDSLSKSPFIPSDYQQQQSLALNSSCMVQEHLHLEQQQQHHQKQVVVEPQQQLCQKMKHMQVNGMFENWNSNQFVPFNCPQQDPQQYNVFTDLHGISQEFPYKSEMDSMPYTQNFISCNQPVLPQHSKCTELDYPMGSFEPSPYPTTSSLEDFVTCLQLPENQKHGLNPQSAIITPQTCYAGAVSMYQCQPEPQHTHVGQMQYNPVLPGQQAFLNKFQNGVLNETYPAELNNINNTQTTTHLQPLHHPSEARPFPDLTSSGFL
Briefly: In vitro assay 1: antagonism in human cell line (AHR transactivation, firefly luciferase reporter, kynurenic acid prestimulated). Format: cell-based. The following applies: AHR Antagonism Human IC50 [M]. A digest of the protocol: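 Antagonism measured as loss of kynurenic acid-driven firefly luciferase from DRE reporter in stably transfected U87 MG cells; constitutive Renilla signal monitors cytotoxicity. Positive/negative control normalization, staurosporine 5 μM with 150 μM kynurenic acid as inhibition control; replicates given as mean or median.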

[3] abbreviates: read-out: AHR Antagonism Mouse IC50, mouse Hepa 1c1c7 cells, 200 μM kynurenic acid, 20 hours.
[4] abbreviates: mouse Hepa 1c1c7 cells, 200 μM kynurenic acid, 20 hours, read-out: AHR Antagonism Mouse IC50.
Where [5] appears, read: Hepa 1c1c7 cells, 200 μM kynurenic acid, 20 hours, firefly luciferase reporter, read-out: AHR Antagonism Mouse IC50.

In general, IC50 refers to the midpoint of a concentration-inhibition curve.

Read-outs that look alike come from different tables or passages of the source.

As to `Cn1cc(-c2nc3c4c(Cl)cccc4nc(N[C@@H]4CCCCNC4=O)n3n2)cn1` [Example 169, (3R)-3-{[10-chloro-2-(1-methyl-1H-pyrazol-4-yl)[1,2,4]triazolo[1,5-c]quinazolin-5-yl]amino}azepan-2-one], the IC50 at AHR [1] (setting [3]) was determined as 118 nM; on AHR [2], 7.27e-09 M.

As for `COc1ccc(-c2nc3c4cc(Cl)ccc4nc(N[C@@H]4CNCCNC4=O)n3n2)cc1` [Example 278, (6R)-6-{[9-chloro-2-(4-methoxyphenyl)[1,2,4]triazolo[1,5-c]quinazolin-5-yl]amino}-1,4-diazepan-5-one], the IC50 worked out at 51 nM on AHR [1] (setting [4]) and 3.72e-07 M against AHR [2].

For the compound `COc1cccc(-c2nc3c4ccc(F)cc4nc(N[C@@H]4CCNC4=O)n3n2)c1` [Example 152, (3R)-3-{[8-fluoro-2-(3-methoxyphenyl)[1,2,4]triazolo[1,5-c]quinazolin-5-yl]amino}pyrrolidin-2-one], the IC50 at AHR [1] (setting [4]) worked out at 353 nM; against AHR [2] it was 5.28e-08 M.

`O=C1NCCCC[C@@H]1Nc1nc2ccccc2c2nc(-c3ccc(Cl)cc3OC(F)(F)F)nn12` [Example 518, (3S)-3-({2-[4-chloro-2-(trifluoromethoxy)phenyl][1,2,4]triazolo[1,5-c]quinazolin-5-yl}amino)azepan-2-one]: the IC50 at AHR [1] (setting [4]) turned out to be 7.94 nM; against AHR [2] it was 4.5e-08 M.

For `CN(C)c1cccc(-c2nc3c4ccccc4nc(N[C@@H]4CCCCNC4=O)n3n2)c1` [Example 446, (3R)-3-({2-[3-(dimethylamino)phenyl][1,2,4]triazolo[1,5-c]quinazolin-5-yl}amino)azepan-2-one], the IC50 on AHR [1] (setting [4]) was found to be 0.51 nM; against AHR [2] it was 2.92e-09 M.

On to `Cc1n[nH]c(C)c1-c1nc2c3ccccc3nc(N[C@@H]3CCCCNC3=O)n2n1` [Example 536, (3R)-3-{[2-(3,5-dimethyl-1H-pyrazol-4-yl)[1,2,4]triazolo[1,5-c]quinazolin-5-yl]amino}azepan-2-one], for which the values for the IC50 at AHR [1] (setting [4]) and against AHR [2] were 94.7 nM and 8.6e-08 M, respectively.

Consider `Cn1nccc1-c1nc2c3cccc(C(F)(F)F)c3nc(N[C@@H]3CNCCNC3=O)n2n1` [Example 946, (6R)-6-{[2-(1-methyl-1H-pyrazol-5-yl)-7-(trifluoromethyl)[1,2,4]triazolo[1,5-c]quinazolin-5-yl]amino}-1,4-diazepan-5-one], for which the figures for the half-maximal inhibitory concentration (IC50) on AHR [1] (setting [5]) and against AHR [2] (firefly luciferase reporter) were 2.16 nM and 8.75e-09 M, respectively.

Regarding `O=C1NCCCC[C@H]1Nc1nc2ccccc2c2nc(-c3nc(C4CC4)no3)nn12` [Example 135, (3R)-3-{[2-(3-cyclopropyl-1,2,4-oxadiazol-5-yl)[1,2,4]triazolo[1,5-c]quinazolin-5-yl]amino}azepan-2-one], the concentration for half-maximal inhibition (IC50) at AHR [1] (setting [4]) worked out at 20.5 nM; against AHR [2] it was 2.77e-08 M.

As for `CS(=N)(=O)c1ccc(-c2nc3c4ccccc4nc(N[C@@H]4CCCCNC4=O)n3n2)cc1` (stereo partly drawn) [Example 306, (3R)-3-({2-[4-(S-methylsulfonimidoyl)phenyl][1,2,4]triazolo[1,5-c]quinazolin-5-yl}amino)azepan-2-one], the results for the IC50 at AHR [1] (setting [4]) and against AHR [2] were 31.2 nM and 1.09e-07 M, respectively.

As to `O=C1NCCC[C@H]1Nc1nc2ccccc2c2nc(-c3ccsc3)nn12` [Example 343, (3R)-3-{[2-(thiophen-3-yl)[1,2,4]triazolo[1,5-c]quinazolin-5-yl]amino}piperidin-2-one], the results for the IC50 on AHR [1] (setting [4]) and on AHR [2] were 178 nM and 6.67e-08 M, respectively.

On to `CC[C@H](Nc1nc2ccccc2c2nc(-c3cn(C)nn3)nn12)C(N)=O` [Example 690, (2S)-2-{[2-(1-methyl-1H-1,2,3-triazol-4-yl)[1,2,4]triazolo[1,5-c]quinazolin-5-yl]amino}butanamide], for which the results for the concentration for half-maximal inhibition (IC50) at AHR [1] (setting [3]) and at AHR [2] were over 20000 nM and over 2e-05 M, respectively.

Regarding `O=C1NCC[C@H]1Nc1nc2ccccc2c2nc(-c3ccc(Cl)cc3OC(F)(F)F)nn12` [Example 520, (3R)-3-({2-[4-chloro-2-(trifluoromethoxy)phenyl][1,2,4]triazolo[1,5-c]quinazolin-5-yl}amino)pyrrolidin-2-one], the values for the 50% inhibitory concentration (IC50) at AHR [1] (setting [4]) and at AHR [2] were 9.59 nM and 3.05e-08 M, respectively.

In the case of `C[C@@H](Nc1nc2ccccc2c2nc(-c3ccc(S(C)(=O)=O)cc3)nn12)C(=O)NCCN(C)C` [Example 774, N-[2-(dimethylamino)ethyl]-N^2-{2-[4-(methanesulfonyl)phenyl][1,2,4]triazolo[1,5-c]quinazolin-5-yl}-D-alaninamide], the results for the IC50 at AHR [1] (setting [4]) and at AHR [2] were 555 nM and 2.26e-06 M, respectively.

`COc1cccc(-c2nc3c4c(C)cccc4nc(N[C@@H]4CCCCNC4=O)n3n2)c1` [Example 178, (3R)-3-{[2-(3-methoxyphenyl)-10-methyl[1,2,4]triazolo[1,5-c]quinazolin-5-yl]amino}azepan-2-one]: the IC50 at AHR [1] (setting [4]) was found to be 2.34 nM; against AHR [2], 3.98e-09 M.

With `COc1cccc(-c2nc3c4c(C)cccc4nc(N[C@H]4CCCNC4=O)n3n2)c1` [Example 182, (3S)-3-{[2-(3-methoxyphenyl)-10-methyl[1,2,4]triazolo[1,5-c]quinazolin-5-yl]amino}piperidin-2-one], the concentration for half-maximal inhibition (IC50) on AHR [1] (setting [4]) turned out to be 1020 nM; on AHR [2] it was 2.54e-07 M.

For `COCCn1cc(-c2nc3c4ccccc4nc(N[C@@H]4CCCCNC4=O)n3n2)cn1` [Example 432, (3R)-3-({2-[1-(2-methoxyethyl)-1H-pyrazol-4-yl][1,2,4]triazolo[1,5-c]quinazolin-5-yl}amino)azepan-2-one], the results for the half-maximal inhibitory concentration (IC50) on AHR [1] (setting [4]) and on AHR [2] were 18.1 nM and 6.11e-08 M, respectively.

As for `O=C1NCCNC[C@H]1Nc1nc2c(C3CC3)cccc2c2nc(-c3cnn(CC4CC4)c3)nn12` [Example 954, (6R)-6-({7-cyclopropyl-2-[1-(cyclopropylmethyl)-1H-pyrazol-4-yl][1,2,4]triazolo[1,5-c]quinazolin-5-yl}amino)-1,4-diazepan-5-one], the IC50 on AHR [1] (setting [5]) is 341 nM; against AHR [2] (firefly luciferase reporter), 7.73e-08 M.

In the case of `COc1ccc(-c2nc3c4cccc(C5CC5)c4nc(N[C@@H]4CCCCNC4=O)n3n2)cc1` [Example 206, (3R)-3-{[7-cyclopropyl-2-(4-methoxyphenyl)[1,2,4]triazolo[1,5-c]quinazolin-5-yl]amino}azepan-2-one], the half-inhibitory concentration (IC50) at AHR [1] (setting [4]) was 7.88 nM; on AHR [2] it was 9.97e-09 M.

As for `CC[C@@H](Nc1nc2ccccc2c2nc(-c3cccc(C(F)(F)F)n3)nn12)C(N)=O` [Example 371, (2R)-2-({2-[6-(trifluoromethyl)pyridin-2-yl][1,2,4]triazolo[1,5-c]quinazolin-5-yl}amino)butanamide], the IC50 was found to be 14.6 nM at AHR [1] (setting [4]) and 7.24e-08 M at AHR [2].

Turning to `COc1ccc(-c2nc3c4c(C#N)cccc4nc(N[C@@H]4CCCCNC4=O)n3n2)cc1` [Example 246, 2-(4-methoxyphenyl)-5-{[(3R)-2-oxoazepan-3-yl]amino}[1,2,4]triazolo[1,5-c]quinazoline-10-carbonitrile], the half-maximal inhibitory concentration (IC50) at AHR [1] (setting [4]) came out at 11.2 nM; at AHR [2], 3.32e-09 M.

Source of the values: US20230113037A1 (Bayer Aktiengesellschaft, priority 2019, published 2023).
